# Measurements from ChEMBL document CHEMBL1128891, “Synthesis of indane derivatives as mechanism-based inhibitors of dopamine -hydroxylase” (Bioorg Med Chem Lett, 1995).
# Legend:
# [1] = target: T1, Dopamine beta-hydroxylase (Bos taurus, UniProt P15101); assay: Kinetic constant for inhibition (KI) of Dopamine beta-Hydroxylase (DBH) from bovine adrenal medulla; format: tissue-based
# T1 sequence (P15101 whole entry): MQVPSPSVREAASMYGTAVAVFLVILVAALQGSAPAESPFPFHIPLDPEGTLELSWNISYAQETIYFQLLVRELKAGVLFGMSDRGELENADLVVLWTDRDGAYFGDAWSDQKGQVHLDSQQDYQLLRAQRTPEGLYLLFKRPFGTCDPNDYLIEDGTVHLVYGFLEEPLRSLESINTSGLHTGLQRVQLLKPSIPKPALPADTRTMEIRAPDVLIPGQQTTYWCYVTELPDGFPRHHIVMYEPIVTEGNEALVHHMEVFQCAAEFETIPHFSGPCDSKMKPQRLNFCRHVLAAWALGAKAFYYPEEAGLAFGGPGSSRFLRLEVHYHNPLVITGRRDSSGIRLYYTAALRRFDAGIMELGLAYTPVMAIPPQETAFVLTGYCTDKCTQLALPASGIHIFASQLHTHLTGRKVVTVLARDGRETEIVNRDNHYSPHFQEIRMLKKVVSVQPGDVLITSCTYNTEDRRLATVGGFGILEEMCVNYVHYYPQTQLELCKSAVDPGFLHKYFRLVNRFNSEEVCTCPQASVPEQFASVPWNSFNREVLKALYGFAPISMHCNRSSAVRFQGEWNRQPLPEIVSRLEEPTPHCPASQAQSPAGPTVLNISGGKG
# [2] = target: T2, Dopamine beta-hydroxylase (Bos taurus) (UniProt P15101); assay: Kinetic constant for inactivation (k inact) of Dopamine beta-Hydroxylase (DBH) from bovine adrenal medulla; format: tissue-based
# T2 sequence (whole entry): T1 sequence (P15101 whole entry)
# [3] = Ratio of kinetic constant k inact to KI was determined
SMILES,Ki [1] [µM],K inact [2] [min⁻¹],Ratio [3] [M⁻¹ min⁻¹]
COc1ccc2c(c1)C1OC1C2 (configuration not stated),650,0.07,110
c1c2c(cc3c1OCO3)C1OC1C2 (configuration not stated),1010,0.06,60
c1ccc2c(c1)CC1OC21 (configuration not stated),1060,0.08,70
COc1ccc2c(c1)C1NC1C2 (configuration not stated),400,0.03,70
COc1ccc2c(c1)C1CC1C2 (configuration not stated),1120,0.11,100
Oc1cc2c(cc1O)C1CC1C2 (configuration not stated),109,0.129,1180
c1c2c(cc3c1OCO3)C1CC1C2 (configuration not stated),160,0.06,370

# Other lines, results leading:
Ki [1] [µM],K inact [2] [min⁻¹],Ratio [3] [M⁻¹ min⁻¹],SMILES
240,0.018,75,COc1ccc(CC2CC2)cc1
150,0.23,1530,Oc1ccc2c(c1)C1CC1C2 (configuration not stated)
3030,0.2,70,c1ccc2c(c1)CC1CC21 (configuration not stated)
12000,–,150,Oc1ccc(CC2CC2)cc1
